Source: US20240336574A1 (LATIGO BIOTHERAPEUTICS, INC., priority 2021, published 2024)
Read-outs that look alike come from different tables or passages of the source.

Molecular target: T1, recombinant human NaV1.8 stably transfected HEK cells (Homo sapiens, UniProt Q9Y5Y9)
T1 construct: expressed in transfected cells; host or cells: HEK cells, stably transfected
Test: Compound profiling on NaV1.8, human NaV1.8 cell line, SyncroPatch384PE automated patch clamp assay (Example 102, first set of compounds, Table 16)
Assay type: cell-based
Settings: human NaV1.8 HEK cells, Table 16 (first set of compounds)
How it was run: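 Automated whole-cell patch clamp on HEK cells precultured at 30 °C one day before recording; CsF-based internal, 140 mM NaCl external. 10-point curve, 20–0.001 μM final, 0.1% DMSO, 5 min exposure. IC50 for resting (P1, −120 mV hold) and inactivated (P2, after 10 s at −40 mV) block, normalized to 250 μM tetracaine and DMSO.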

[1] = inactivated state block (P2 measurement), read-out: P2IC50
[2] = resting state block (P1 measurement), read-out: P1IC50

T1 sequence (Q9Y5Y9 whole entry): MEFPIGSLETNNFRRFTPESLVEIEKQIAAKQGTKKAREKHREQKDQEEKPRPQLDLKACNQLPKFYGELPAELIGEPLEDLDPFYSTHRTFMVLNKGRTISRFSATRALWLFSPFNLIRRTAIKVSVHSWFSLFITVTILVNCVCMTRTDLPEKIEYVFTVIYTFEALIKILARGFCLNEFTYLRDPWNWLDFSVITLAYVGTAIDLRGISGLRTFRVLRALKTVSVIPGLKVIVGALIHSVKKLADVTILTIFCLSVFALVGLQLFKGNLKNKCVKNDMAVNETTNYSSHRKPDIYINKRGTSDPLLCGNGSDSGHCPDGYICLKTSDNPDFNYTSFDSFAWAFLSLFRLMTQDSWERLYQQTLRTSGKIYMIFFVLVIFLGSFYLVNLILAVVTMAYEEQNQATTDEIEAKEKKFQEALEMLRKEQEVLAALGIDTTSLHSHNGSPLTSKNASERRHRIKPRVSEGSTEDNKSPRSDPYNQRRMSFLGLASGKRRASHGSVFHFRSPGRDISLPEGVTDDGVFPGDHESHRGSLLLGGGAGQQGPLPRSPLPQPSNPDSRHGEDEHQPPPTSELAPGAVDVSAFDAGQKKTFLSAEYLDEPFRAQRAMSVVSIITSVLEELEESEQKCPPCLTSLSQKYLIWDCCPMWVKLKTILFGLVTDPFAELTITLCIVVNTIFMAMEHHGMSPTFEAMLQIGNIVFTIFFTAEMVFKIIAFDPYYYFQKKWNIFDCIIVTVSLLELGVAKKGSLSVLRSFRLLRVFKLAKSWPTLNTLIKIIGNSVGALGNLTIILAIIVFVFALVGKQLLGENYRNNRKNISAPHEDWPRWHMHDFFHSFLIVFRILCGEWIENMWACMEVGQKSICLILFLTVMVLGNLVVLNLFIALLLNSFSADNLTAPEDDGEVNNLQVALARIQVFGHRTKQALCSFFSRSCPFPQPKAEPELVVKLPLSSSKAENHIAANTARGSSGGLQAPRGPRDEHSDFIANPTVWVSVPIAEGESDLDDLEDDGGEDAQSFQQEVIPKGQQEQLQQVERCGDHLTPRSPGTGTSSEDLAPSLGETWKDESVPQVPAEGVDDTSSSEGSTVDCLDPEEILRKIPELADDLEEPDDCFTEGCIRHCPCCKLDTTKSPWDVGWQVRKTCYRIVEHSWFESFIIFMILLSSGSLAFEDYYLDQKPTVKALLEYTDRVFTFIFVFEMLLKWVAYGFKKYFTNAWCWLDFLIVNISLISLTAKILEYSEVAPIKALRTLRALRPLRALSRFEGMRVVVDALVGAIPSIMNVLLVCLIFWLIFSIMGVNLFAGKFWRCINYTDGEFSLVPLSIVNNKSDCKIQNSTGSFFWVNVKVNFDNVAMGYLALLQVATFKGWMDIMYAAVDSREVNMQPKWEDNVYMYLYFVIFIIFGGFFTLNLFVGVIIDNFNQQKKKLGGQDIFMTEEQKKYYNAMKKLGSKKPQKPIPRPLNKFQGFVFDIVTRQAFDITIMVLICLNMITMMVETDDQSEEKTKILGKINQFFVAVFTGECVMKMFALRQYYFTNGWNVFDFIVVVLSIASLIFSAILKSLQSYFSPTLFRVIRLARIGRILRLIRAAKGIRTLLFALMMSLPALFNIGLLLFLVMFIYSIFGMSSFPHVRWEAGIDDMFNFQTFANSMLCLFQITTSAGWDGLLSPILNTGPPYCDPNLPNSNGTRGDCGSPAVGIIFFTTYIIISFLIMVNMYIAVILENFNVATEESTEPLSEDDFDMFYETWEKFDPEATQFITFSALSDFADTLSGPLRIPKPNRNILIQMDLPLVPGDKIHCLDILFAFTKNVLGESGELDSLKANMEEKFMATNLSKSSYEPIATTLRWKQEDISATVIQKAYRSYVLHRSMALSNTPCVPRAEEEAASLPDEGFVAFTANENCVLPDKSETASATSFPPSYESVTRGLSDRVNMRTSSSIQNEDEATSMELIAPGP

SMILES	IC50 [1] [nM]	IC50 [2] [nM]
COc1ccc(-c2nnc(Oc3ccc(C#N)cc3OC)c(C(=O)Nc3cccc([S@](C)(=N)=O)c3)c2C)cc1 [Compound 1535, 3-(4-cyano-2-methoxyphenoxy)-N-{3-[(R)-imino(methyl)oxo-λ^6-sulfanyl]phenyl}-6-(4-methoxyphenyl)-5-methylpyridazine-4-carboxamide]	20 to 40	20 to 40
COc1ccc(-c2nnc(Oc3ccc(C#N)cc3OC)c(C(=O)Nc3cccc([S@@](C)(=N)=O)c3)c2C)cc1 [Compound 1536, 3-(4-cyano-2-methoxyphenoxy)-N-{3-[(S)-imino(methyl)oxo-λ^6-sulfanyl]phenyl}-6-(4-methoxyphenyl)-5-methylpyridazine-4-carboxamide]	40 to 200	40 to 200
COc1cc(C#N)ccc1Oc1nnc(-c2ccccc2F)c(C)c1C(=O)Nc1cccc([S@](C)(=N)=O)c1 [Compound 1537, 3-(4-cyano-2-methoxyphenoxy)-6-(2-fluorophenyl)-N-{3-[(R)-imino(methyl)oxo-λ^6-sulfanyl]phenyl}-5-methylpyridazine-4-carboxamide]	20 to 40	20 to 40
COc1cc(C#N)ccc1Oc1nnc(C(F)(F)F)c(C)c1C(=O)Nc1cnc(C(N)=O)s1 [Compound 1538, 5-[[3-(4-cyano-2-methoxy-phenoxy)-5-methyl-6-(trifluoromethyl)pyridazine-4-carbonyl]amino]thiazole-2-carboxamide]	40 to 200	40 to 200
COc1cc(C#N)ccc1Oc1nnc(C(F)(F)F)c(C)c1C(=O)Nc1ccc(C(N)=O)nc1 [Compound 1539, N-(6-carbamoyl-3-pyridyl)-3-(4-cyano-2-methoxy-phenoxy)-5-methyl-6-(trifluoromethyl)pyridazine-4-carboxamide]	20 to 40	40 to 200
COc1cc(C#N)ccc1Oc1nnc(C(F)(F)F)c(C)c1C(=O)Nc1cncc(C#N)c1 [Compound 1540, 3-(4-cyano-2-methoxy-phenoxy)-N-(5-cyano-3-pyridyl)-5-methyl-6-(trifluoromethyl)pyridazine-4-carboxamide]	40 to 200	40 to 200
COc1cc(C#N)ccc1Oc1nnc(C(F)(F)F)c(C)c1C(=O)Nc1ccc(OC)c(C(N)=O)c1 [Compound 1541, N-(3-carbamoyl-4-methoxy-phenyl)-3-(4-cyano-2-methoxy-phenoxy)-5-methyl-6-(trifluoromethyl)pyridazine-4-carboxamide]	200 to 500	200 to 500
COc1cc(C#N)ccc1Oc1nnc(C(F)(F)F)c(C)c1C(=O)Nc1cccc(C(=O)NS(C)(=O)=O)c1 [Compound 1542, 3-(4-cyano-2-methoxy-phenoxy)-5-methyl-N-[3-(methylsulfonylcarbamoyl)phenyl]-6-(trifluoromethyl)pyridazine-4-carboxamide]	200 to 500	200 to 500
COc1cc(C#N)ccc1Oc1nnc(C(F)(F)F)c(C)c1C(=O)Nc1cccnc1 [Compound 1543, 3-(4-cyano-2-methoxy-phenoxy)-5-methyl-N-(3-pyridyl)-6-(trifluoromethyl)pyridazine-4-carboxamide]	40 to 200	40 to 200
COc1cc(C#N)ccc1Oc1nnc(C(F)(F)F)c(C)c1C(=O)Nc1ccc[n+]([O-])c1 [Compound 1544, 3-(4-cyano-2-methoxy-phenoxy)-5-methyl-N-(1-oxidopyridin-1-ium-3-yl)-6-(trifluoromethyl)pyridazine-4-carboxamide]	20 to 40	40 to 200
CO/N=C(\C)c1cccc(NC(=O)c2c(Oc3ccc(C#N)cc3OC)nnc(C(F)(F)F)c2C)c1 [Compound 1545, 3-(4-cyano-2-methoxy-phenoxy)-N-[3-[(E)-N-methoxy-C-methyl-carbonimidoyl]phenyl]-5-methyl-6-(trifluoromethyl)pyridazine-4-carboxamide]	200 to 500	200 to 500
COC(=O)c1cccc(NC(=O)c2c(Oc3ccc(C#N)cc3OC)nnc(C(F)(F)F)c2C)c1 [Compound 1546, methyl 3-[[3-(4-cyano-2-methoxy-phenoxy)-5-methyl-6-(trifluoromethyl)pyridazine-4-carbonyl]amino]benzoate]	40 to 200	40 to 200
Cc1cc(F)ccc1Oc1nnc(C(C)O)c(C)c1C(=O)Nc1cccc(S(C)(=N)=O)c1 (centres unmarked) [Compound 1547, 3-(4-fluoro-2-methyl-phenoxy)-6-(1-hydroxyethyl)-5-methyl-N-[3-(methylsulfonimidoyl)phenyl]pyridazine-4-carboxamide]	200 to 500	200 to 500
COc1cc(C#N)ccc1Oc1nnc(C(F)(F)F)c(C)c1C(=O)Nc1cccc(C#N)c1 [Compound 1548, 3-(4-cyano-2-methoxy-phenoxy)-N-(3-cyanophenyl)-5-methyl-6-(trifluoromethyl)pyridazine-4-carboxamide]	20 to 40	20 to 40
COc1c(Oc2nnc(C(F)(F)F)c(C)c2C(=O)Nc2cccc(C(N)=O)c2)ccc(F)c1F [Compound 1549, N-(3-carbamoylphenyl)-3-(3,4-difluoro-2-methoxy-phenoxy)-5-methyl-6-(trifluoromethyl)pyridazine-4-carboxamide]	≤ 20	≤ 20
COc1nc(C2CC2)ccc1Oc1nnc(C(F)(F)F)c(C)c1C(=O)Nc1cccc(S(C)(=N)=O)c1 (centres unmarked) [Compound 1550, 3-[(6-cyclopropyl-2-methoxy-3-pyridyl)oxy]-5-methyl-N-[3-(methylsulfonimidoyl)phenyl]-6-(trifluoromethyl)pyridazine-4-carboxamide]	≤ 20	≤ 20
COc1c(Oc2nnc(C(F)(F)F)c(C)c2C(=O)Nc2ccn3nnnc3c2)ccc(F)c1F [Compound 1551, 3-(3,4-difluoro-2-methoxy-phenoxy)-5-methyl-N-(tetrazolo[1,5-a]pyridin-7-yl)-6-(trifluoromethyl)pyridazine-4-carboxamide]	≤ 20	≤ 20
COc1c(Oc2nnc(C(F)(F)F)c(C)c2C(=O)Nc2cccc(S(C)(=O)=O)c2)ccc(Cl)c1F [Compound 1552, 3-(4-chloro-3-fluoro-2-methoxy-phenoxy)-5-methyl-N-(3-methylsulfonylphenyl)-6-(trifluoromethyl)pyridazine-4-carboxamide]	≤ 20	≤ 20
Cc1cc(F)ccc1Oc1nncc(C)c1C(=O)Nc1cccc(S(C)(=N)=O)c1 (centres unmarked) [Compound 1553, 3-(4-fluoro-2-methyl-phenoxy)-5-methyl-N-[3-(methylsulfonimidoyl)phenyl]pyridazine-4-carboxamide]	200 to 500	200 to 500
COc1cc(C#N)ccc1Oc1nnc(C2=CCN(C(C)=O)CC2)c(C)c1C(=O)Nc1cccc(S(C)(=N)=O)c1 (centres unmarked) [Compound 1554, 6-(1-acetyl-3,6-dihydro-2H-pyridin-4-yl)-3-(4-cyano-2-methoxy-phenoxy)-5-methyl-N-[3-(methylsulfonimidoyl)phenyl]pyridazine-4-carboxamide]	200 to 500	200 to 500
COc1cc(C#N)ccc1Oc1nnc(C2=CCN(C)CC2)c(C)c1C(=O)Nc1cccc(S(C)(=N)=O)c1 (centres unmarked) [Compound 1555, 3-(4-cyano-2-methoxy-phenoxy)-5-methyl-6-(1-methyl-3,6-dihydro-2H-pyridin-4-yl)-N-[3-(methylsulfonimidoyl)phenyl]pyridazine-4-carboxamide]	200 to 500	200 to 500
COc1cc(C#N)ccc1Oc1nnc(C2=CCOC2)c(C)c1C(=O)Nc1cccc(S(C)(=N)=O)c1 (centres unmarked) [Compound 1556, 3-(4-cyano-2-methoxy-phenoxy)-6-(2,5-dihydrofuran-3-yl)-5-methyl-N-[3-(methylsulfonimidoyl)phenyl]pyridazine-4-carboxamide]	40 to 200	40 to 200
Cc1cc(F)ccc1Oc1ncc(C(F)(F)F)c(C)c1C(=O)Nc1cccc(S(C)(=N)=O)c1 (centres unmarked) [Compound 1557, 2-(4-fluoro-2-methylphenoxy)-4-methyl-N-(3-(S-methylsulfonimidoyl)phenyl)-5-(trifluoromethyl)nicotinamide]	≤ 20	≤ 20
Cc1cc(F)ccc1Oc1ncc(Cl)c(C)c1C(=O)Nc1cccc(S(C)(=N)=O)c1 (centres unmarked) [Compound 1558, 5-chloro-2-(4-fluoro-2-methylphenoxy)-4-methyl-N-(3-(S-methylsulfonimidoyl)phenyl)nicotinamide]	≤ 20	≤ 20
Cc1nc(F)ccc1Oc1ncc(C(F)(F)F)c(C)c1C(=O)Nc1cccc([S@](C)(=N)=O)c1 [Compound 1559, (R)-2-((6-fluoro-2-methylpyridin-3-yl)oxy)-4-methyl-N-(3-(S-methylsulfonimidoyl)phenyl)-5-(trifluoromethyl)nicotinamide]	≤ 20	≤ 20
Cc1nc(F)ccc1Oc1ncc(C(F)(F)F)c(C)c1C(=O)Nc1cccc([S@@](C)(=N)=O)c1 [Compound 1560, (S)-2-((6-fluoro-2-methylpyridin-3-yl)oxy)-4-methyl-N-(3-(S-methylsulfonimidoyl)phenyl)-5-(trifluoromethyl)nicotinamide]	≤ 20	≤ 20
COc1cc(C#N)ccc1Oc1ncc(C(F)(F)F)cc1C(=O)Nc1cccc(S(N)(=O)=O)c1 [Compound 1561, 2-(4-cyano-2-methoxyphenoxy)-N-(3-sulfamoylphenyl)-5-(trifluoromethyl)pyridine-3-carboxamide]	≤ 20	≤ 20
COc1cc(C#N)ccc1Oc1ncc(C(F)(F)F)cc1C(=O)Nc1cccc(S(C)(=N)=O)c1 (centres unmarked) [Compound 1562, 2-(4-cyano-2-methoxyphenoxy)-N-{3-[imino(methyl)oxo-λ^6-sulfanyl]phenyl}-5-(trifluoromethyl)pyridine-3-carboxamide]	≤ 20	≤ 20
